Results as given in patent US5814612A, “Retinol derivatives and uses thereof” (priority 1992, dated 1998).
Entries after “also recorded” stand apart in the source; their conditions may differ. Where two headings read alike, the source gives them in different places.

What was measured:
5/2 cells = test: Growth-supporting activity on 5/2 cells in serum-free ITLB medium; assay type: cell-based, human
Procedure: The assay was done in 96-well microtiter plates in a final volume of 200 ul/well. The cells were cultured for 72 hours and cell growth determined by [^3 H] thymidine (0.8 μCi/well)labeling for the last 16 hours. Retinoids were added at the indicated concentrations at the initiation of culture and every 24 hours thereafter.
5/2 cells were grown in the absence of retinol in a medium containing the basic RPMI 1640 amino acid/salt mixture, insulin (5 μg/ml), transferrin (5 μg/ml), albumin (0.1%) and linoleic acid (10^-6 M) (ITLB). […] The dose-response curve shown in FIG. 26 indicates an effective concentration of 10^-7 M.

thymocytes = test: Proliferation of anti-CD3 activated thymocytes in serum-free ITLB medium; assay type: cell-based, BALB/c mouse; settings: for effectiveness relative to retinol: anti-CD3, 14HRR at 12 hour intervals; for proliferative response of anti-CD3e activated thymocytes / growth kinetics over four days: retinol 3×10^-6 M, 14HRR 6×10^-7 M, human serum 3%; for growth kinetics over four days: 10^5 cells/well
Procedure: FIG. 14A: Purified BALB/c thymocytes were activated with immobilized anti-CD3e antibody and cultivated for four days in ITLB medium with or without retinol (3×10^-6 M), 14HRR (6×10^-7 M) (fresh 14HRR was added every 12 hours), human serum (3%) or FCS (10%) at the cellular densities shown. Proliferation was assayed by tritiated thymidine incorporation into cellular DNA.
FIG. 14B: BALB/c thymocytes (10^6 /ml) were added to microtiter plates coated with titrated amounts of anti-CD3e antibody with […] retinol or without, as indicated. Proliferation was measured in hexaduplicate wells on day 3 by ^3 H thymidine incorporation assay.
Purified thymocytes (5×10^5 cells/well) were stimulated by TCR crosslinking with immobilized anti-CD3e antibody (FIG. 15A) or 0.4 μg/ml Con A (FIG. 15B) in serum-free ITLB medium. The indicated amounts of retinoids were added either once at the beginning of the experiment (marked as "1×") or every 12 hours thereafter (marked as "6×"). DNA synthesis was measured after 72 hours by tritiated thymidine uptake as described.
Purified thymocytes (10^5 cells/well) were activated with anti-CD3 antibody in ITLB medium with or without retinol (3×10^-6 M), 14HRR (6×10^-7, added every 12 hours or human serum (3%)). DNA synthesis was measured daily by a 4 hour pulse of tritiated thymidine.
Thymocytes (5×10^4 /well) were activated by immobilized anti-CD3 mAb in medium ITLB. Retinol (2×10^-6 M) was added at initiation of culture, or delayed by 12 hours and 24 hours, respectively, or omitted altogether. ^3 H thymidine pulses of 4 hours were used to measure DNA synthesis of hexaduplicate wells.
Thymuses of 3 to 6-week-old BALB/c mice were teased in serum-free RPMI medium supplemented with 1% BSA, 10^-6 M linoleic acid and antibiotics. Depletion of accessory cells was achieved by two cycles of complement-dependent lysis with a mixture of anti-IA^d (5 μg/ml) and anti-IE^d (1:500 diluted ascites fluid). Briefly, cells were incubated on ice for 30 minutes with Ia antibodies, spun down, resuspended in 1:40 diluted rabbit complement, and incubated at 37° C. for 45 minutes. Incubations and two subsequent washes were carried out with RPMI medium containing 1% BSA. Cell viability was evaluated by trypan blue dye exclusion. To determine the extent of depletion of accessory cells, samples were stained with FITC-conjugated anti-Fc receptor antibody and analyzed by flow cytometry on a FACScan instrument (Becton Dickinson).
Cells were cultured in serum-free medium, referred to as ITLB, containing RPMI 1640 supplemented with 8×10^-7 M insulin (5 μg/ml), 7×10^-8 M transferrin (5 μg/ml), 2×10^-6 M linoleic acid, 2×10^-6 M delipidated BSA (0.12 mg/ml), 2 mM L-glutamine, 1 mM sodium pyruvate and antibiotics. They were seeded into 96-well flat-bottom plates at varying cellular densities in a final volume of 100 μl. In control experiments, cells were cultured in medium containing 10% FCS or 3% human serum and 5×10^-5 M 2ME. T cells and thymocytes were activated with immobilized, purified anti-mAb CD3e or by the addition of Con A in the presence or absence of different concentrations of retinoids. Unless indicated otherwise, retinoids were replenished every 12 hours to maintain a reasonably constant concentration of these labile compounds in culture. […] Cultures were carried out in duplicate. Plates were incubated at 37° C. in a humidified 5% CO2 atmosphere. Cellular proliferation was determined by [^3 H] thymidine uptake (0.5 uCi/well; New England Nuclear, Boston, Mass.) after the incubation times indicated for each experiment with a 4 hour labeling pulse.

T cells = test: T cell activation and proliferation, retinol cofactor requirement; assay type: cell-based, murine
Procedure: They were seeded into 96-well flat-bottom plates at varying cellular densities in a final volume of 100 μl. In control experiments, cells were cultured in medium containing 10% FCS or 3% human serum and 5×10^-5 M 2ME. […] Cultures were carried out in duplicate. Plates were incubated at 37° C. in a humidified 5% CO2 atmosphere. Cellular proliferation was determined by [^3 H] thymidine uptake (0.5 uCi/well; New England Nuclear, Boston, Mass.) after the incubation times indicated for each experiment with a 4 hour labeling pulse. Cells were harvested onto glass filter and [^3 H]TdR incorporation was determined by liquid scintillation counting. The data presented are the means of duplicate or six replicate cultures. The restriction to duplicate measurements was necessary to conserve scarce 14HRR. […] Each experiment was repeated at least twice.

[1] = system: lymphoblastoid cells (LCL); settings: cited from earlier work

Row | Structure (SMILES) | restoration of proliferation in absence of retinol (5/2 cells) | effectiveness relative to retinol (thymocytes) | dose optimum (thymocytes; provided at 12 hour intervals) | proliferative response of anti-CD3e activated thymocytes (thymocytes) | growth kinetics over four days (thymocytes) | effect of a single addition at start of culture (thymocytes; single addition) | ability to substitute for retinol in T cell activation (words) (T cells) | support of growth of LCL in serum-free medium [1] | reduction of sufficient retinol concentration with repeated feeding (thymocytes; replenished twice daily, 3-day culture) | T cell activation in FCS-containing medium (T cells; FCS-containing medium, absence of APC) | ability to substitute for retinol in T cell activation (words) (T cells; listed as retinoic acid)
1 | CC(C=CC=C(C)C(O)CO)=CC=C1C(C)=CCCC1(C)C (stereo not shown) [14HRR, 14-hydroxy-4,14-retro-retinol] | restores the capacity to proliferate | as potent as retinol | 500 nM | vigorous responses were elicited | exponential growth | ineffective; also recorded: does not enable sustained proliferation; also recorded: insufficient to drive T cell proliferation | effectively supports T cell activation in conjunction with a mitogen in lieu of retinol; also recorded: capable of supporting activation and sustaining proliferation of T cells; also recorded: capable of supporting T cell activation and proliferation in the absence of any extraneous source of retinal | – | – | – | –
2 | CC1=C(/C=C/C(C)=C/C=C/C(C)=C/CO)C(C)(C)CCC1 [retinol, all-trans retinol] | restores the capacity to proliferate | – | – | vigorous responses were elicited | exponential growth | – | – | support the growth of LCL in serum-free medium | five- to ten-fold lower | no activation in the absence of APC, whether or not additional retinol is supplied | –
3 | CC1=C(/C=C/C(C)=C/C=C/C(C)=C/C(=O)O)C(C)(C)CCC1 [all-trans retinoic acid] | – | completely inactive | – | – | – | – | – | but not retinoic acid, support the growth of LCL in serum-free medium | – | – | cannot be satisfied by retinoic acid; also recorded: T lymphocytes neither respond to externally provided retinoic acid
